Measurements from patent US20250230193A1, “CYCLIC COMPOUND HAVING SELECTIVE KRAS INHIBITORY EFFECT ON HRAS AND NRAS” (CHUGAI SEIYAKU KABUSHIKI KAISHA, priority 2022, published 2025).
*1 amine or outer side, *2 acyl side, *3 side chain or, on linkers, in order; H or OH if unused. Where a SMILES comes first, the peptide text is derived from it. Bridges are numbered along the chain shown (N, C = ends). [ ]: non-standard residue; d: D form. The star is where a group is joined. hPhe(3,5-F2-4-CF3) = N[C@@H](CCc1cc(F)c(C(F)(F)F)c(F)c1)C(=O)O; hPhe(3-Cl-4-CF3) = N[C@@H](CCc1ccc(C(F)(F)F)c(Cl)c1)C(=O)O; X37 = O=C([C@H](Cc1ccc(C(F)(F)F)cc1)N(CC1CCC1)[*:1])[*:2]; NPrPhe(4-CF3) = CCCN[C@@H](Cc1ccc(C(F)(F)F)cc1)C(=O)O; NMeGly(cPent) = CN[C@H](C(=O)O)C1CCCC1; X9 = C[C@@](N[*:1])(C(=O)[*:2])C1CC1; NMeD = CN[C@@H](CC(=O)O)C(=O)O; NMeL = CN[C@@H](CC(C)C)C(=O)O; Morpholide = C1CN(*)CCO1; Ac5c = NC1(C(=O)O)CCCC1; Aze = O=C(O)[C@@H]1CCN1; Sar = CNCC(=O)O

Columns and labels:
[1] = molecular target: GDP-bound NRAS wild-type protein (Homo sapiens, UniProt P01111); assay: Binding to NRAS by surface plasmon resonance (SPR), Single Cycle Kinetics
Sequence of GDP-bound NRAS wild-type protein (P01111 whole entry): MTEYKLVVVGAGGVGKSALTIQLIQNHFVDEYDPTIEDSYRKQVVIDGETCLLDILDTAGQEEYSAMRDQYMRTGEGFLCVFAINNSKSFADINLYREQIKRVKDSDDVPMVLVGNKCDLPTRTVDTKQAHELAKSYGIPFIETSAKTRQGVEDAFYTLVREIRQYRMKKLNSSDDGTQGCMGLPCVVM

[2] = molecular target: GDP-bound HRAS wild-type protein (Homo sapiens, UniProt P01112); assay: Binding to HRAS by surface plasmon resonance (SPR), Single Cycle Kinetics
Sequence of GDP-bound HRAS wild-type protein (P01112 whole entry): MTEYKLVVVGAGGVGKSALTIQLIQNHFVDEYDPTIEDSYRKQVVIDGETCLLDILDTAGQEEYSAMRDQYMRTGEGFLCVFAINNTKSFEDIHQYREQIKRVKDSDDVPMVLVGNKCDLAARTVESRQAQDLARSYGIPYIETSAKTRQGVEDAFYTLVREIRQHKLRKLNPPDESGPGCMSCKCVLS

[3] = KD ratio NRAS/KRAS, class symbols
[4] = KD ratio HRAS/KRAS, class symbols
[5] = KD ratio, GDP-bound NRAS wild-type vs GDP-bound KRAS wild-type, SPR
[6] = KD ratio, GDP-bound HRAS wild-type vs GDP-bound KRAS wild-type, SPR

Compound: CCO[C@@H]1C[C@H]2C(=O)NC3(CCC3)C(=O)N(C)[C@@H](C3CCCC3)C(=O)N(C)[C@H](C(=O)N(C)CC)CC(=O)N(C)[C@@H](CC3CCC3)C(=O)N[C@@H]([C@@H](C)CC)C(=O)N(C)CC(=O)N(C)[C@H]3C/C=C\CCN(C3=O)[C@@H](Cc3ccc(C(F)(F)F)cc3)C(=O)N(C)CC(=O)N[C@@H](CCc3ccc(Cl)c(Cl)c3)C(=O)N2C1 [PP2824]
- NRAS/KRAS (ratio of KD value with respect to GDP-bound NRAS wild-type protein to KD value with respect to KRAS) [1, 3]: A (a compound having 10 or more and less than 20 is denoted as A)
- HRAS/KRAS (ratio of KD value with respect to GDP-bound HRAS wild-type protein to KD value with respect to KRAS) [2, 4]: A (a compound having 10 or more and less than 20 is denoted as A)

Compound: CCO[C@@H]1C[C@H]2C(=O)NC3(CC(C)(C)C3)C(=O)N(C)[C@@H](C3CCCC3)C(=O)N(C)[C@H](C(=O)N(C)C)CC(=O)N(C)[C@@H](CC(F)(F)F)C(=O)N[C@@H]([C@@H](C)CC)C(=O)N(C)CC(=O)N(C)[C@H]3C/C=C\CCN(C3=O)[C@@H](Cc3ccc(C(F)(F)F)cc3)C(=O)N(C)CC(=O)N[C@@H](CCc3ccc(C(F)(F)F)c(Cl)c3)C(=O)N2C1 [PP2833]
- NRAS/KRAS (ratio of KD value with respect to GDP-bound NRAS wild-type protein to KD value with respect to KRAS) [1, 3]: A (a compound having 10 or more and less than 20 is denoted as A)
- HRAS/KRAS (ratio of KD value with respect to GDP-bound HRAS wild-type protein to KD value with respect to KRAS) [2, 4]: A (a compound having 10 or more and less than 20 is denoted as A)

Compound: CCCN(C)C(=O)[C@@H]1CC(=O)N(C)[C@@H](CC(F)(F)F)C(=O)N[C@@H]([C@@H](C)CC)C(=O)N(C)CC(=O)N(C)[C@H]2C/C=C\CCN(C2=O)[C@@H](Cc2ccc(C(F)(F)F)cc2)C(=O)N(C)CC(=O)N[C@@H](CCc2cc(F)c(C(F)(F)F)c(F)c2)C(=O)N2C[C@H](OCC)C[C@H]2C(=O)NC2(CC(F)(F)C2)C(=O)N(C)[C@@H](C2CCCC2)C(=O)N1C [PP1734]
- NRAS/KRAS (ratio of KD value for NRAS to KD value for KRAS) [1, 5]: A (a compound having 10 or more and less than 20 is denoted as A)
- HRAS/KRAS (ratio of KD value for HRAS to KD value for KRAS) [2, 6]: A (a compound having 10 or more and less than 20 is denoted as A)

Compound: CC[C@H](C)[C@@H]1NC(=O)[C@H](CC(C)C)N(C)C(=O)C[C@@H](C(=O)N2CCOCC2)N(CC)C(=O)[C@H](C2CCCC2)N(C)C(=O)C2(CCC2)NC(=O)[C@@H]2[C@H](O)CCN2C(=O)[C@H](CCc2cc(F)c(C(F)(F)F)c(F)c2)NC(=O)CN(C)C(=O)[C@H](Cc2ccc(C(F)(F)F)cc2)N2CCCCC[C@@H](C2=O)N(C)C(=O)CN(C)C1=O [PP0955]
- NRAS/KRAS (ratio of KD value with respect to NRAS to KD value with respect to KRAS) [1, 5]: A (a compound having 10 or more and less than 20 is denoted as A)
- HRAS/KRAS (ratio of KD value with respect to HRAS to KD value with respect to KRAS) [2, 6]: A (a compound having 10 or more and less than 20 is denoted as A)

Compound: CCCN1C(=O)[C@@H]2CCN2C(=O)CN(C)C(=O)[C@H]([C@@H](C)CC)NC(=O)[C@H](CC(C)C)N(C)C(=O)C[C@@H](C(=O)N2CCOCC2)N(C)C(=O)[C@H](C2CCCC2)N(C)C(=O)[C@](C)(C2CC2)NC(=O)[C@@H]2CCCN2C(=O)[C@H](CCc2cc(F)c(C(F)(F)F)c(F)c2)NC(=O)CN(C)C(=O)[C@@H]1Cc1ccc(C(F)(F)F)cc1 [PP0791] ([NMeL]I[Sar][Aze][NPrPhe(4-CF3)][Sar][hPhe(3,5-F2-4-CF3)]P[X9][NMeGly(cPent)][NMeD]-Morpholide; lactam N-11)
- NRAS/KRAS (ratio of KD value with respect to GDP-bound NRAS wild-type protein to KD value with respect to KRAS) ([1]; KD ratio NRAS/KRAS, SPR): C (A compound having a KD ratio of 0.1 or more and less than 3 is denoted as C)
- HRAS/KRAS (ratio of KD value with respect to GDP-bound HRAS wild-type protein to KD value with respect to KRAS) ([2]; KD ratio HRAS/KRAS, SPR): B (a compound having 3 or more and less than 10 is denoted as B)

Compound: CCO[C@@H]1C[C@H]2C(=O)NC3(CC(C)(C)C3)C(=O)N(C)[C@@H](C(CC)CC)C(=O)N(C)[C@H](C(=O)N(C)C)CC(=O)N(C)[C@@H](CC)C(=O)N[C@@H]([C@@H](C)CC)C(=O)N(C)CC(=O)N(C)[C@H]3C/C=C\CCN(C3=O)[C@@H](Cc3ccc(C)cc3)C(=O)N(C)CC(=O)N[C@@H](CCc3ccc(Cl)c(Cl)c3)C(=O)N2C1 [PP2188]
- NRAS/KRAS (ratio of KD value with respect to NRAS to KD value with respect to KRAS) ([1]; SPR, GDP-bound NRAS wild-type vs GDP-bound KRAS wild-type): AA (a compound having 20 or more is denoted as AA)
- HRAS/KRAS (ratio of KD value with respect to HRAS to KD value with respect to KRAS) ([2]; SPR, GDP-bound HRAS wild-type vs GDP-bound KRAS wild-type): A (a compound having 10 or more and less than 20 is denoted as A)

Compound: CC[C@H](C)[C@@H]1NC(=O)[C@H](CC(C)C)N(C)C(=O)C[C@@H](C(=O)N2CCOCC2)N(C)C(=O)[C@H](C2CCCC2)N(C)C(=O)C2(CCCC2)NC(=O)[C@@H]2CCCN2C(=O)[C@H](CCc2ccc(C(F)(F)F)c(Cl)c2)NC(=O)CN(C)C(=O)[C@H](Cc2ccc(C(F)(F)F)cc2)N(CC2CCC2)C(=O)CN(C)C(=O)CN(C)C1=O [PP0123] ([NMeL]I[Sar][Sar][X37][Sar][hPhe(3-Cl-4-CF3)]P[Ac5c][NMeGly(cPent)][NMeD]-Morpholide; lactam N-11)
- NRAS/KRAS (ratio of KD for GDP-bound NRAS wild-type to KD for KRAS) ([1]; KD ratio NRAS/KRAS, SPR): B (a compound having 3 or more and less than 10 is denoted as B)
- HRAS/KRAS (ratio of KD for GDP-bound HRAS wild-type to KD for KRAS) ([2]; KD ratio HRAS/KRAS, SPR): C (A compound having a KD ratio of 0.1 or more and less than 3 is denoted as C)
